This is an account of results in patent publication US20220323405A1, “COMBINATION PRODUCT USING 3,4-METHYLENEDIOXYMETHAMPHETAMINE AND […] THE TREATMENT OF […] DISORDERS” (Universitätsspital Basel, priority 2021, published 2022).

For series [1], the system named is healthy subjects. As to conditions: non-ambulating persons, 1.5-4 hours after administration vs placebo; p<0.001; cited from earlier work.
Series [2] has as its system healthy human subjects. As to conditions: MDMA 125 mg vs placebo, cited from earlier work.
The subject of series [3] is healthy humans. The series is described as follows: Modeled co-administration of carvedilol with MDMA at the same time (estimates from pre-administration data). The arrangement: species or system human. An excerpt:
FIGS. 11A-11C are graphs showing effects of MDMA alone, carvedilol alone, carvedilol prior to MDMA and carvedilol co-administered with MDMA at the same time (modeled data) on systolic (FIG. 11A), diastolic (FIG. 11B), and mean arterial blood pressure (FIG. 11C) in healthy humans; and
FIGS. 12A-12B are graphs showing effects of MDMA alone, carvedilol alone, carvedilol prior to MDMA and carvedilol co-administered with MDMA at the same time (modeled data) on heart rate (FIG. 12A) and body temperature (FIG. 12B) in healthy humans.
Therefore, the present invention further developed the carvedilol-pre-dosing approach into a simultaneous dosing approach. The study provided the information on the effects of carvedilol alone, and MDMA alone.
For blood pressure and heart rate the effects of carvedilol given simultaneously with MDMA were therefore estimated using the carvedilol and placebo mean values for each measured time point after administration and the mean carvedilol-placebo effect difference was calculated and then subtracted from the MDMA-placebo difference (FIGS. 11A-11C).
FIGS. 11A-11C and 12A-12B illustrate the beneficial effect of the present invention using co-administration of the adverse effect-reducing agent (carvedilol) and the empathogen/entactogen (MDMA). If carvedilol is administered before MDMA (carvedilol prior MDMA condition) as in the past study (Hysek et al., 2012a), a drop in blood pressure and heart rate can be observed in FIGS. 11A-11C and 12A-12B prior to the MDMA administration and consistent with the effect of carvedilol alone.
The graphical illustrations (FIGS. 11A-11C and 12A-12B) are based on estimates and modeling using existing data from the pre-administration of carvedilol. However, it is clear from illustrations FIGS. 11A-11C and 12A-12B that the invention provides an effective approach to reduce MDMA-induced cardiostimulant effects.

For series [4], the system named is humans. To be noted: cited from earlier work.
Series [5] relates to rats. As to conditions: cited from earlier work.
Series [6] has as its system healthy subjects. As to conditions: doxazosin 8 mg/d for 3 days before MDMA 125 mg; cited from earlier work.
Series [7] relates to humans. As to conditions: carvedilol 50 mg; cited from earlier work.
The subject of series [8] is healthy subjects. To be noted: cited from earlier work.
[9] abbreviates: humans, after MDMA vs after pindolol-MDMA.
Where [10] appears, read: carvedilol 50 mg 1 hour before MDMA 125 mg.
The mark [11] stands for this setting: carvedilol 50 mg 1 hour before MDMA 125 mg, listed as Carvedilol.

Like-named read-outs stand apart in the source and are kept apart here.

With `CNC(C)Cc1ccc2c(c1)OCO2` (stereo not shown) [MDMA, 3,4-methylenedioxymethamphetamine], the Body temperature result in series [1] is “elevated”. In addition, in series [2], the “Diastolic and systolic blood pressure” value is listed as “significantly increased”; the Heart rate result is “significantly increased”; the Pupil size entry was “significantly increased”; the Rate pressure product entry was “significantly increased”. Besides, the Body temperature entry in series [2] (tympanic) was “significantly increased”. For the same compound, the “Body temperature (FIG. 12B)” value in series [3] (MDMA alone) is given as “slightly increases”. For the same compound, in series [4] (setting [9]), the “Peak mean arterial blood pressure (MAP) values” is listed as 115±11 mm Hg and the “Peak values (mean±SD) for heart rate” value was 84±13 beats/minute. The Norepinephrine levels entry in series [5] was “induced”.
On to `COc1cc2nc(N3CCN(C(=O)C4COc5ccccc5O4)CC3)nc(N)c2cc1OC` (stereo not shown) [Doxazosin, doxazosin], for which, in series [6], the “Effect on MDMA-induced elevations in blood pressure” value (“Effect … in blood pressure” for short) is “reduced” and the “Effect on MDMA-induced elevations in body temperature” value was “reduced”.
Consider `CC(C)NCC(O)COc1cccc2[nH]ccc12` (stereo not shown) [pindolol], for which, in series [4] (pindolol pretreatment), the “Effect on MDMA-induced increase in body temperature” value is listed as “no effect” and the “Effect on adverse effects of MDMA” value is “did not change”.
As to `COc1ccccc1OCCNCC(O)COc1cccc2[nH]c3ccccc3c12` (stereo not shown) [carvedilol], the “Effect on smoked cocaine-induced increases in heart rate and blood pressure” value in series [7] is listed as “attenuate”. Also, the “Effect on MDMA-induced increase in body temperature (FIG. 12B)” value in series [3] (carvedilol administered prior to MDMA and with MDMA, modeled data) is “reduce”. For the same compound, in series [3] (carvedilol with MDMA at the same time, modeled data), the “Effect on MDMA-induced increase in heart rate and blood pressure” value was “reduce the MDMA effect effectively and similarly”. Further, in series [8] (setting [10]), the “Effect … in blood pressure” value was “effectively reduced”, the “Effect on MDMA-induced elevations in body temperature” value was “reduced”, the “Effect on MDMA-induced elevations in heart rate” value is reported as “effectively reduced” and the “Effect on plasma exposure to MDMA” value was “did not alter”. The “Effect on subjective effects of MDMA (good drug effects, drug liking)” value in series [8] (setting [10]) was “did not alter”. Moreover, in series [8] (setting [11]), the “Effect … in blood pressure” value was “reduced”; the “Effect on MDMA-induced elevations in heart rate” value is recorded as “reduced”; the “Effect on subjective effects of MDMA (good drug effects, drug liking)” value is on record as “did not affect”. Also, the “Blood pressure and heart rate prior to the MDMA administration” value in series [8] (carvedilol prior MDMA condition) was “drop”. For the same compound, the “Effect on established MDMA-induced hyperthermia” value in series [5] (administered 1 hour after MDMA) is recorded as “completely reversed”. Further, the “Effect on MDMA-induced hyperthermic (thermogenic) response” value in series [5] (administered before or after MDMA) is “prevented”.
